Patent US10137081B2, “Device and method for sustained release of antipsychotic medications” (DELPOR, INC., priority 2012, dated 2018)

Experiments:
[1] = In vivo pharmacokinetics, device as subcutaneous implant in rats
Method: Six male Sprague Dawley rats (Charles River; Hollister, Calif.) of an initial weight of approximately 250-280 grams were administered a device as a subcutaneous implant. This study complied with all applicable sections of the Final Rules of the Animal Welfare Act regulations (9 CFR), the Public Health Service Policy on Humane Care and Use of Laboratory Animals, the Guide for the Care and Use of Laboratory Animals. […] All animals were weighed and the hair was clipped and removed from the dorsal area prior to dose administration. All animals were anesthetized with isoflurane via an induction chamber and maintained in the appropriate plane of anesthesia using isoflurane inhalant (1-3%) and a vaporizer. The dorsal area of the animal was prepared for implantation using appropriate surgical scrub and ethanol. Aseptic technique was used during implantation. A small incision was made in the skin and a single device implant gently placed in the dorsal subcutaneum using a sterile implanter tool. Following administration, the skin incision was closed with sterile suture. The animals were given an appropriate dose of analgesia (see table below) and allowed to recover.
The animals were euthanized following the blood collection.
Body weights were measured on the day of test article administration and weekly thereafter.
Blood volumes of approximately 0.8 to 1.0 mL were collected at each time point, placed into Vacutainer tubes containing EDTA, and kept on wet ice until processing. For preparation of plasma, tubes were mixed by gentle inversion several times and centrifuged under refrigeration (approximately 2-8° C.) for approximately 15 minutes at approximately 2800 rpm (˜1000×g). Plasma was split into two approximately equal aliquots and transferred to labeled screw-top tubes for storage, and stored at approximately (−60° C. to −80° C.) until shipment to the analytical lab.
Using aseptic technique, the implant site was opened up and a photo of the implant field was taken. Blood draws were made four hours and 24 hours after implant removal. Any observations were recorded.
Bioanalytical measurements of active moiety (risperidone+9-OH risperidone) were conducted by Integrated Analytical Solutions (Berkeley, Calif.) using an LCMS method validated to resolve risperidone and 9-OH risperidone in rat plasma with a lower limit of quantitation (LLQ) of 0.5 ng/mL for each analyte.
Plasma concentrations were normalized to initial body weight for each time point and plotted versus time.

[2] = for period of constant, zero-order in vitro release of risperidone: FIGS. 4, 5
Method: Singly capped devices were weighed and tared on a conventional laboratory balance. The open end of each device was fitted with a small funnel, and each salt form of drug to be tested was loaded into the reservoir in small (about 10-about 50 mg) portions. When necessary, each added portion of solid was tamped down to the base of the reservoir prior to the next addition. This process was repeated until a specific loading target was met (generally about 250-500 mg). The filled reservoir was then capped with either a closed PEEK cap or a cap configuration identical to that used on the first end of the device, vide supra.
The assembled devices were weighed and then loaded into a custom-built vacuum hydrator. The air space within each device was evacuated by placing the device in a vacuum (<0.5 torr) for no less than 30 min. The devices were then back-filled with phosphate-buffered saline (pH 7.4) applied with a back pressure of 5-10 psi above atmospheric pressure for at least one hour. The devices were then retrieved from the hydration apparatus, wiped with a tissue to absorb any external fluid, weighed, and transferred to petri dishes containing buffer for the drug output assay, vide infra. The success of the hydration step was determined by the measuring the increase in mass before and after hydration.
The dish was placed in an incubator with pCO2 adjusted to give an average buffer pH of 7.4. Approximately once per day, the dishes were retrieved from the incubator. Each device was transferred to a new dish containing an equivalent amount of buffer and then returned to the incubator.
The retained receiving buffer samples were acidified with 3.0 mL of 0.1 M HCl and allowed to stand for approximately 1 hour. An aliquot of each sample (generally 100 μL) was transferred to a single well of a UV-transparent 96 well plate along with 100 μL of 0.1 M HCl diluent. After plating, the absorbance of each well was recorded at 270 nm using a Molecular Devices spectrophotometer. The absorbances were converted into concentrations (and ultimately output mass per day) by comparison to a standard curve. Samples that absorbed outside of the linear range of the instrument were diluted and re-read, as appropriate.

[3] = general statement in the description; cited from earlier work
[4] = subcutaneous implant, FIGS. 7, 8

Compound: risperidone hexanoate
- examination of the implant site ([1]; after 118 days of subcutaneous implantation): no evidence of inflammation or other adverse tissue responses
- plasma level of active moiety following removal of the device ([1]; below LLQ, 4 h and 24 h after implant removal at day 118): < 0.5 ng/mL
- plasma level of active moiety (risperidone plus 9-OH risperidone) ([1]; subcutaneous implant, 290-300 mg salt per device, normalized to initial body weight, constant level after 4 hour burst): about 20 ng/mL
- period of constant plasma level of active moiety [1, 4]: 118 days
- period of constant plasma level of active moiety ([1]; subcutaneous implant, until device removal, FIG. 7): about 4 months
- period of in vitro release of risperidone within the therapeutic range ([2]; Example 6, devices 172, 180, 360 and 364, followed for 90-100 days, FIG. 5): ≥ 90 days
- period of in vitro release at a constant rate within the therapeutic range ([2]; Example 7, followed for 6 months, FIG. 6): 6 months
- period of constant, zero-order in vitro release of risperidone [2]: 30 to 90 days

Compound: Cc1nc2n(c(=O)c1CCN1CCC(c3noc4cc(F)ccc34)CC1)CCCC2 [risperidone free base, risperidone, reference compound]
- solubility in water [3]: extremely insoluble in water

Compound: Cc1nc2n(c(=O)c1CCN1CCC(c3noc4cc(F)ccc34)CC1)CCCC2.O=C(O)c1ccccc1 [risperidone benzoate, reference compound]
- in vitro output pattern relative to the therapeutic window ([2]; FIG. 2, upper limit 2.5 mg/day): rises to high levels before falling

Compound: CCCCC(=O)O.Cc1nc2n(c(=O)c1CCN1CCC(c3noc4cc(F)ccc34)CC1)CCCC2 [risperidone pentanoate]
- period of constant plasma level of active moiety [1, 4]: greater than 60 days
- initial period in which in vitro output is slightly above the therapeutic window ([2]; FIG. 4, upper limit 2.5 mg/day): 2 weeks
- period of constant, zero-order in vitro release of risperidone [2]: at least 60 days

Compound: dodecanoate
- solubility in water [3]: not appreciably more soluble than the free base form
